How the values were obtained:
[1] = target: recombinant human WT SOD1 (Homo sapiens, UniProt P00441); format: biochemical
[2] = target: SOD1 (Homo sapiens, UniProt P00441); format: biochemical
[3] = target: WT DJ-1 (Homo sapiens, UniProt Q99497); format: biochemical
[4] = target: T1, DJ-1 (Homo sapiens, UniProt Q99497); format: biochemical
[5] = target: T1, DJ-1; format: binding
[6] = in vivo; cited from earlier work

Sequence of WT DJ-1 (Q99497 whole entry): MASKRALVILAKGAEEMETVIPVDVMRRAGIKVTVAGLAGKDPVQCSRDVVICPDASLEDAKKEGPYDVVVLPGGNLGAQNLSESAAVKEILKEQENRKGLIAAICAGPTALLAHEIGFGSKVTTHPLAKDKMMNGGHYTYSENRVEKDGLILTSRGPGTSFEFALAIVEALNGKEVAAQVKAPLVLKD
T1 sequence (Q99497 whole entry): as above
Sequence of recombinant human WT SOD1 (P00441 whole entry): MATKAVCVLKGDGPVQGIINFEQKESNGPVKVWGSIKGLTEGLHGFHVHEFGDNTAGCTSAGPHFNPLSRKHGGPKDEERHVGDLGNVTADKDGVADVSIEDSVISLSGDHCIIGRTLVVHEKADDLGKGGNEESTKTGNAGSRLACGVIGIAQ
Sequence of SOD1 (P00441 whole entry): as above

| SMILES | covalent dimerization of SOD1 [1] | covalent dimerization of DJ-1 [3] | denaturation temperature of DJ-1 [5] | also measured |
| --- | --- | --- | --- | --- |
| OCC1(CO)CSSC1 [1,2-dithiolane-4,4-dimethanol] | capable of covalently dimerizing SOD1 |  |  |  |
| O=C1C=CC(=O)N1CCSSCCN1C(=O)C=CC1=O [DTME, dithio-bismaleimidocthane] |  |  |  | cross-linking of SOD1 monomers [2]: able to cross-link SOD1 monomers |
| [O-][S+]1CCCCS1 (stereo not shown) [NSC56224, 1-oxo-1,2-dithiane] | capable of covalently dimerizing SOD1 | covalent dimerizer of DJ-1 | increase the measured denaturation temperature of DJ-1 | extent of cross-linking of SOD1 monomers [1]: able to cross-link the majority of SOD1 monomers in the sample; site of covalent linkage in DJ-1 dimer [4]: covalently linked DJ-1 dimers at Cys53 |
| NC(=O)NN=C1CSSC1 [NSC72268] |  | specific covalent dimerizer of DJ-1 | increase the measured denaturation temperature of DJ-1 |  |
| CC(C)C[C@H](NC(=O)[C@H](Cc1ccccc1)NC(=O)c1cnccn1)B(O)O [bortezomib] |  |  |  | LD100 [6]: < 0.25 mg/kg |

Reference: patent publication US12709745B2 (priority 2012, dated 2026)
